From patent publication US12371454B2, “Cyclic peptide compound having Kras inhibitory action” (priority 2019, dated 2025)
Starred links: 1 amine or outer side, 2 acyl side, 3 side chain; linkers in the order of their positions; H or OH if unused. Positions of bridges follow the written chain, without caps; N, C: chain ends. Non-standard residues stand in square brackets, D forms with d. Residues, ends and D or L forms follow the SMILES beside them. *: point of attachment. hPhe(3,5-F2-4-CF3) = N[C@@H](CCc1cc(F)c(C(F)(F)F)c(F)c1)C(=O)O; hPhe(3-Cl-4-CF3) = N[C@@H](CCc1ccc(C(F)(F)F)c(Cl)c1)C(=O)O; hPhe(3-F,4-CF3) = N[C@@H](CCc1ccc(C(F)(F)F)c(F)c1)C(=O)O; NMePhe(4-CF3) = CN[C@@H](Cc1ccc(C(F)(F)F)cc1)C(=O)O; 3Oxa8azabicyclo(3.2.1)octane = C1CC2COCC1N2*; NMePhe(4-Cl) = CN[C@@H](Cc1ccc(Cl)cc1)C(=O)O; NMedβ3hAla = C[C@H](CC(=O)[*:2])N(C)[*:1]; NMeGly(cPent) = CN[C@H](C(=O)O)C1CCCC1; Pro(4,4-F2) = O=C(O)[C@@H]1CC(F)(F)CN1; NMeGly(cBu) = CN[C@H](C(=O)O)C1CCC1; NMeCha = CN[C@@H](CC1CCCCC1)C(=O)O; Hyp = O=C(O)[C@@H]1C[C@@H](O)CN1; NEtLeu = CCN[C@@H](CC(C)C)C(=O)O; NMeAhp(2) = CCCCC[C@H](NC)C(=O)O; NMeChg = CN[C@H](C(=O)O)C1CCCCC1; NMeI = CC[C@H](C)[C@H](NC)C(=O)O; Gly(cBu) = N[C@H](C(=O)O)C1CCC1; NMeD = CN[C@@H](CC(=O)O)C(=O)O; NMeL = CN[C@@H](CC(C)C)C(=O)O; NMeV = CN[C@H](C(=O)O)C(C)C; d(β3hA) = C[C@@H](N)CC(=O)O; Azetidin(1-yl) = C1CN(*)C1; NMeS = CN[C@@H](CO)C(=O)O; NMeA = CN[C@@H](C)C(=O)O; Piperidide = C1CCN(*)CC1; Pyrrolidide = C1CCN(*)C1; Ac5c = NC1(C(=O)O)CCCC1; Aze = O=C(O)[C@@H]1CCN1; Aib = CC(C)(N)C(=O)O; Cyclopropyl = C1CC1*; NEtG = CCNCC(=O)O; Sar = CNCC(=O)O; Propyl = CCC*

Each molecule was assayed on Human pancreatic cancer cell line AsPC-1 (assay: Measurement of AsPC-1 cell growth inhibition (AsPC-1 CGI)). Settings: 96 h.
Assay type: cell-based
In short: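 AsPC-1 cells in 15% FBS RPMI-1640 were exposed to test compound for 96 hours at 37° C, with CellTiter-Glo as endpoint.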

| Compound | IC50 [nM] |
| --- | --- |
| CC(C)C[C@H]1C(=O)N[C@@H](C2CCC2)C(=O)N(C)[C@@H](C)C(=O)N2CC[C@H]2C(=O)N(C)[C@@H](CC2CCCCC2)C(=O)N(C)CC(=O)N[C@@H](CCc2ccc(C(F)(F)F)c(Cl)c2)C(=O)N2CCC[C@H]2C(=O)NC2(CCCC2)C(=O)N(C)[C@@H](C(C)C)C(=O)N[C@H](C)CC(=O)N1C [Compound 580] (cyclo([Ac5c][NMeV][d(β3hA)][NMeL][Gly(cBu)][NMeA][Aze][NMeCha][Sar][hPhe(3-Cl-4-CF3)]P)) | 100 to 500 |
| CC[C@H](C)[C@@H]1NC(=O)[C@H](CC(C)C)N(C)C(=O)C[C@@H](C(=O)N2CCCCC2)N(C)C(=O)[C@H](C(C)C)N(C)C(=O)C2(CCCC2)NC(=O)[C@@H]2CCCN2C(=O)[C@H](CCc2ccc(C(F)(F)F)c(F)c2)NC(=O)CN(C)C(=O)[C@H](CC2CCCCC2)N(C)C(=O)[C@@H]2CCN2C(=O)CN(C)C1=O [Compound 599] ([NMeL]I[Sar][Aze][NMeCha][Sar][hPhe(3-F,4-CF3)]P[Ac5c][NMeV][NMeD]-Piperidide; lactam N-11) | 100 to 500 |
| CC[C@H](C)[C@@H]1NC(=O)[C@H](CC(C)C)N(C)C(=O)C[C@@H](C)N(C)C(=O)[C@H](C2CCCCC2)N(C)C(=O)C2(CCCC2)NC(=O)[C@@H]2CC(F)(F)CN2C(=O)[C@H](CCc2cc(F)c(C(F)(F)F)c(F)c2)NC(=O)CN(C)C(=O)[C@H](Cc2ccc(C(F)(F)F)cc2)N(C)C(=O)[C@@H]2CCN2C(=O)[C@H](C)N(C)C1=O [Compound 606] (cyclo([Ac5c][NMeChg][NMedβ3hAla][NMeL]I[NMeA][Aze][NMePhe(4-CF3)][Sar][hPhe(3,5-F2-4-CF3)][Pro(4,4-F2)])) | 100 to 500 |
| CCCCC[C@H]1C(=O)N[C@@H]([C@@H](C)CC)C(=O)N(C)[C@@H](C)C(=O)N2CC[C@H]2C(=O)N(C)[C@@H](COCCC)C(=O)N(C)CC(=O)N[C@@H](CCc2ccc(C(F)(F)F)c(Cl)c2)C(=O)N2CCC[C@H]2C(=O)NC2(CCCC2)C(=O)N(C)[C@@H](C2CCCC2)C(=O)N(C)[C@H](C(=O)N2C3CCC2COC3)CC(=O)N1C [Compound 622] ([NMeAhp(2)]I[NMeA][Aze][NMeS](Propyl)[Sar][hPhe(3-Cl-4-CF3)]P[Ac5c][NMeGly(cPent)][NMeD]-{3Oxa8azabicyclo(3.2.1)octane}; lactam N-11) | 20 to 50 |
| CCO[C@@H]1C[C@H]2C(=O)NC3(CCCC3)C(=O)N(C)[C@@H](C3CCCCC3)C(=O)N(C)[C@H](C)CC(=O)N(C)[C@@H](CC(C)C)C(=O)N[C@@H]([C@@H](C)CC)C(=O)N(C)[C@@H](C)C(=O)N3CC[C@H]3C(=O)N(C)[C@@H](Cc3ccc(C(F)(F)F)cc3)C(=O)N(C)CC(=O)N[C@@H](CCc3ccc(C(F)(F)F)c(Cl)c3)C(=O)N2C1 [Compound 652] (cyclo([Ac5c][NMeChg][NMedβ3hAla][NMeL]I[NMeA][Aze][NMePhe(4-CF3)][Sar][hPhe(3-Cl-4-CF3)][Hyp](Et))) | 50 to 100 |
| CC[C@H](C)[C@@H]1NC(=O)[C@H](CC(C)C)N(C)C(=O)C[C@@H](C)NC(=O)[C@H](C(C)C)N(C)C(=O)C2(CCCC2)NC(=O)[C@@H]2CCCN2C(=O)[C@H](CCc2ccc(C(F)(F)F)c(Cl)c2)NC(=O)CN(C)C(=O)[C@H](CC2CCCCC2)N(C)C(=O)[C@@H]2CCN2C(=O)CN(C)C1=O [Compound 663] (cyclo([Ac5c][NMeV][d(β3hA)][NMeL]I[Sar][Aze][NMeCha][Sar][hPhe(3-Cl-4-CF3)]P)) | 100 to 500 |
| CC[C@H](C)[C@@H]1NC(=O)[C@H](CC(C)C)N(CC)C(=O)C[C@@H](C(=O)N2CCCCC2)N(C)C(=O)[C@H](C(C)C)N(C)C(=O)C2(CCCC2)NC(=O)[C@@H]2CCCN2C(=O)[C@H](CCc2ccc(C(F)(F)F)c(Cl)c2)NC(=O)CN(C)C(=O)[C@H](CC2CCCCC2)N(C)C(=O)[C@@H]2CCN2C(=O)[C@H](C)N(C)C1=O [Compound 667] ([NEtLeu]I[NMeA][Aze][NMeCha][Sar][hPhe(3-Cl-4-CF3)]P[Ac5c][NMeV][NMeD]-Piperidide; lactam N-11) | 100 to 500 |
| CC[C@H](C)[C@@H]1NC(=O)[C@H](CC(C)C)N(C)C(=O)C[C@@H](C(=O)N2CCCCC2)N(C)C(=O)[C@H](C2CCC2)N(C)C(=O)C2(CCCC2)NC(=O)[C@@H]2CCCN2C(=O)[C@H](CCc2ccc(C(F)(F)F)c(Cl)c2)NC(=O)CN(C)C(=O)[C@H](CC2CCCCC2)N(C)C(=O)[C@@H]2CCN2C(=O)[C@H](C)N(C)C1=O [Compound 672] ([NMeL]I[NMeA][Aze][NMeCha][Sar][hPhe(3-Cl-4-CF3)]P[Ac5c][NMeGly(cBu)][NMeD]-Piperidide; lactam N-11) | 100 to 500 |
| CC[C@H](C)[C@@H]1NC(=O)[C@H](CC(C)C)N(C)C(=O)C[C@@H](C(=O)N2CCCCC2)N(C)C(=O)[C@H]([C@@H](C)CC)N(C)C(=O)C2(CCCC2)NC(=O)[C@@H]2CCCN2C(=O)[C@H](CCc2ccc(C(F)(F)F)c(F)c2)NC(=O)CN(C)C(=O)[C@H](C2CCCC2)N(C)C(=O)[C@@H]2CCN2C(=O)[C@H](C)N(C)C1=O [Compound 674] ([NMeL]I[NMeA][Aze][NMeGly(cPent)][Sar][hPhe(3-F,4-CF3)]P[Ac5c][NMeI][NMeD]-Piperidide; lactam N-11) | 50 to 100 |
| CC[C@H](C)[C@@H]1NC(=O)[C@H](CC(C)C)N(C)C(=O)C[C@@H](C(=O)N2CCCCC2)N(C)C(=O)[C@H](C(C)C)N(C)C(=O)C2(CCCC2)NC(=O)[C@@H]2CCCN2C(=O)[C@H](CCc2ccc(C(F)(F)F)c(Cl)c2)NC(=O)CN(C)C(=O)[C@H](CC2CCCCC2)N(C)C(=O)[C@@H]2CCN2C(=O)[C@H](COC2CC2)N(C)C1=O [Compound 676] ([NMeL]I[NMeS](Cyclopropyl)[Aze][NMeCha][Sar][hPhe(3-Cl-4-CF3)]P[Ac5c][NMeV][NMeD]-Piperidide; lactam N-11) | 100 to 500 |
| CC[C@H](C)[C@@H]1NC(=O)[C@H](CC(C)C)N(C)C(=O)C[C@@H](C(=O)N(C)C)NC(=O)[C@H](C2CCCC2)N(C)C(=O)C2(CCCC2)NC(=O)[C@@H]2CCCN2C(=O)[C@H](CCc2ccc(C(F)(F)F)c(Cl)c2)NC(=O)CN(C)C(=O)[C@H](CC2CCCCC2)N(C)C(=O)[C@@H]2CCN2C(=O)[C@H](C)N(C)C1=O [Compound 677] ([NMeL]I[NMeA][Aze][NMeCha][Sar][hPhe(3-Cl-4-CF3)]P[Ac5c][NMeGly(cPent)]D-NMe2; lactam N-11) | 50 to 100 |
| CC[C@H](C)[C@@H]1NC(=O)[C@H](CC(C)C)N(C)C(=O)C[C@@H](C(=O)N2CCCCC2)N(C)C(=O)[C@H](C(C)C)N(C)C(=O)C2(CCCC2)NC(=O)[C@@H]2CCCN2C(=O)[C@H](CCc2ccc(C(F)(F)F)c(Cl)c2)NC(=O)CN(C)C(=O)[C@H](Cc2ccc(Cl)cc2)N(C)C(=O)[C@@H]2CCN2C(=O)[C@H](C)N(C)C1=O [Compound 680] ([NMeL]I[NMeA][Aze][NMePhe(4-Cl)][Sar][hPhe(3-Cl-4-CF3)]P[Ac5c][NMeV][NMeD]-Piperidide; lactam N-11) | 100 to 500 |
| CCCOC[C@H]1C(=O)N(C)CC(=O)N[C@@H](CCc2ccc(C(F)(F)F)c(F)c2)C(=O)N2CCC[C@H]2C(=O)NC2(CCCC2)C(=O)N(C)[C@@H]([C@@H](C)CC)C(=O)N(C)[C@H](C(=O)N2CCCC2)CC(=O)N(C)[C@@H](CC(C)C)C(=O)N[C@@H]([C@@H](C)CC)C(=O)N(C)[C@@H](C)C(=O)N2CC[C@H]2C(=O)N1C [Compound 684] ([NMeL]I[NMeA][Aze][NMeS](Propyl)[Sar][hPhe(3-F,4-CF3)]P[Ac5c][NMeI][NMeD]-Pyrrolidide; lactam N-11) | 20 to 50 |
| CCCOC[C@H]1C(=O)N(C)CC(=O)N[C@@H](CCc2ccc(C(F)(F)F)c(F)c2)C(=O)N2CCC[C@H]2C(=O)NC2(CCCC2)C(=O)N(C)[C@@H]([C@@H](C)CC)C(=O)N(C)[C@H](C)CC(=O)N(C)[C@@H](CC(C)C)C(=O)N[C@@H]([C@@H](C)CC)C(=O)N(C)[C@@H](C)C(=O)N2CC[C@H]2C(=O)N1C [Compound 694] (cyclo([Ac5c][NMeI][NMedβ3hAla][NMeL]I[NMeA][Aze][NMeS](Propyl)[Sar][hPhe(3-F,4-CF3)]P)) | 20 to 50 |
| CC[C@H](C)[C@@H]1NC(=O)[C@H](CC(C)C)N(C)C(=O)C[C@@H](C(=O)N2CCCC2)NC(=O)[C@H](C2CCCC2)N(C)C(=O)C2(CCCC2)NC(=O)[C@@H]2CCCN2C(=O)[C@H](CCc2ccc(C(F)(F)F)c(Cl)c2)NC(=O)CN(C)C(=O)[C@H](CC2CCCCC2)N(C)C(=O)[C@@H]2CCN2C(=O)[C@H](C)N(C)C1=O [Compound 700] ([NMeL]I[NMeA][Aze][NMeCha][Sar][hPhe(3-Cl-4-CF3)]P[Ac5c][NMeGly(cPent)]D-Pyrrolidide; lactam N-11) | 100 to 500 |
| CC[C@H](C)[C@@H]1NC(=O)[C@H](CC(C)C)N(C)C(=O)C[C@@H](C(=O)N2CCC2)N(C)C(=O)[C@H](C2CCCC2)N(C)C(=O)C2(CCCC2)NC(=O)[C@@H]2CCCN2C(=O)[C@H](CCc2ccc(C(F)(F)F)c(Cl)c2)NC(=O)CN(CC)C(=O)[C@H](CC2CCCCC2)N(C)C(=O)[C@@H]2CCN2C(=O)[C@H](C)N(C)C1=O [Compound 726] ([NMeL]I[NMeA][Aze][NMeCha][NEtG][hPhe(3-Cl-4-CF3)]P[Ac5c][NMeGly(cPent)][NMeD]-{Azetidin(1-yl)}; lactam N-11) | 20 to 50 |
| CC[C@H](C)[C@@H]1NC(=O)[C@H](C(C)C)N(C)C(=O)C[C@@H](C)NC(=O)[C@H](CC(C)C)N(C)C(=O)C(C)(C)NC(=O)[C@H](CC(C)C)N(C)C(=O)[C@H](CCc2ccc(C(F)(F)F)c(Cl)c2)NC(=O)CN(C)C(=O)[C@H](Cc2ccc(Cl)cc2)N(C)C(=O)CN(C)C(=O)CN(C)C1=O [Compound 740] (cyclo([Aib][NMeL][d(β3hA)][NMeV]I[Sar][Sar][NMePhe(4-Cl)][Sar][hPhe(3-Cl-4-CF3)][NMeL])) | 100 to 500 |
| CC[C@H](C)[C@@H]1NC(=O)[C@H](C)N(C)C(=O)C[C@@H](C)NC(=O)[C@H](C2CCCC2)N(C)C(=O)C2(CCCC2)NC(=O)[C@@H]2CCCN2C(=O)[C@H](CCc2ccc(C(F)(F)F)c(Cl)c2)NC(=O)CN(C)C(=O)[C@H](Cc2ccc(C(F)(F)F)cc2)N(C)C(=O)[C@@H]2CCCN2C(=O)CN(C)C1=O [Compound 749] (cyclo([Ac5c][NMeGly(cPent)][d(β3hA)][NMeA]I[Sar]P[NMePhe(4-CF3)][Sar][hPhe(3-Cl-4-CF3)]P)) | 100 to 500 |
